According to US4551532A, “Ethylene glycol derivatives having anti-protozoan, anti-fungal and anti-tumor activity” (priority 1980, dated 1985):
Converted amounts (≈) assume the structure as drawn. Where two headings read alike, the source gives them in different places.

Key:
Sclerotinia sclerotiorum = experiment: antifungal activity, serial dilution method; assay type: cell-based; details: Sclerotinia sclerotiorum (kidney bean stem rot); 1% glucose-bouillon agar
[1] = test system: Colletotrichum lagenarium; experiment: antifungal activity, serial dilution method; assay type: cell-based; details: Colletotrichum orbiculare
[2] = test system: Tetrahymena pyriformis W strain; experiment: antiprotozoal activity, broth dilution method; assay type: cell-based; details: 28° C., 44-48 hours, pH 7.0, read-out: Growth inhibition MIC Tetrahymena
Leptosphaeria salvinii = experiment: antifungal activity, serial dilution method; assay type: cell-based; details: Nakataea oryzae
Botrytis cinerea = experiment: antifungal activity, serial dilution method; assay type: cell-based; details: Botrytis cinerea (gray mold); 1% glucose-bouillon agar
Saccharomyces cerevisiae = experiment: antifungal activity, serial dilution method; assay type: cell-based; details: Saccharomyces cerevisiae (brewer's yeast); 1% glucose-bouillon agar; read-out: MIC
Penicillium = experiment: antifungal activity, serial dilution method; assay type: cell-based, Penicillium niger; details: Penicillium niger (blue mold); 1% glucose-bouillon agar; read-out: MIC
Cryptococcus neoformans = experiment: antimycotic activity, paper disk inhibition circle; assay type: cell-based; details: 48 h, 8 mm paper disk, 3 mg/ml, 37° C., 2 days, read-out: Growth inhibition Cryptococcus
Method: Referring to the antimycotic activity presented in Table 2, Cryptoccoccus neoformans and others were used as the test microbes, a paper disk (8 mm in diameter) was immersed in an aqueous solution of each test compound having a concentration of 3 mg/ml, air dried and placed on an agar medium, then incubation was conducted at 37° C. for 2 days, and the inhibition circle was measured. When the diameter of the inhibition circle was not larger than 8 mm, 8-10 mm, 10-20 mm, or larger than 20 mm, the activity was judged as -, ±, + or ++, respectively.

Cochliobolus miyabeanus = experiment: antifungal activity, serial dilution method; assay type: cell-based; details: Bipolaris oryzae
Aspergillus niger = experiment: antifungal activity, serial dilution method; assay type: cell-based
Pyricularia oryzae = experiment: microbe, parasite or virus in culture; assay type: cell-based
[3] = Colletotrichum lagenarium (cucumber anthracnose), 1% glucose-bouillon agar, read-out: MIC
[4] = Leptosphaeria salvinii (rice stem rot), 1% glucose-bouillon agar, read-out: MIC
[5] = Aspergillus niger (black mold), 1% glucose-bouillon agar, read-out: MIC

SMILES	MIC (Sclerotinia sclerotiorum)	MIC [1, 3]	MIC [2]	MIC (Leptosphaeria salvinii; [4])	MIC (Botrytis cinerea)	MIC (Saccharomyces cerevisiae)	MIC (Penicillium)	zone of inhibition at 3000 µg/mL (Cryptococcus neoformans)	MIC (Cochliobolus miyabeanus)	MIC (Aspergillus niger; Aspergillus niger)	MIC (Pyricularia oryzae)	MIC (Leptosphaeria salvinii)	MIC (Aspergillus niger; [5])	MIC [1]
CCCCCCCCCCCCCCOCCOCCOP(=O)([O-])OCC[N+](C)(C)C [Example 26, 3,6-Dioxaeicosyl 2-trimethylammonioethyl phosphate]	50 µg/mL	1.56 µg/mL	0.2 µg/mL	6.25 µg/mL	6.25 µg/mL	6.25 µg/mL	6.25 µg/mL	10 to 20 mm	12.5 µg/mL	12.5 µg/mL	3.12 µg/mL	–	–	–
CCCCCCCCCCCCCCCCCCOCCOCCOP(=O)([O-])OCC[N+](C)(C)C [Example 18, 3,6-Dioxatetracoxyl 2-trimethylammonioethyl phosphate]	> 100 µg/mL	> 100 µg/mL	≥ 4 µg/mL	–	25 µg/mL	–	> 100 µg/mL	10 to 20 mm	> 100 µg/mL	–	12.5 µg/mL	12.5 µg/mL	> 100 µg/mL	–
CCCCCCCCCCCCOCCOCCOCCOCCOCCOP(=O)([O-])OCC[N+](C)(C)C [Example 3, 3,6,9,12,15-Pentaoxaheptacosyl 2-trimethylammonioethyl phosphate]	–	–	> 4 µg/mL	–	–	–	–	< 8 mm	–	–	–	–	–	–
CCCCCCCCCCCCCCOCCOCCOP(=O)([O-])OCC[n+]1ccccc1 [Example 34, 3,6-Dioxaeicosyl 2-pyridinioethyl phosphate]	–	–	4 µg/mL	–	–	–	–	10 to 20 mm	–	–	–	–	–	–
CCCCCCCCCCCCCCOCCOCCOP(=O)(O)OCCN [Example 24, 3,6-Dioxaeicosyl 2-aminoethyl phosphate]	50 µg/mL	25 µg/mL	1 to 2 µg/mL	> 100 µg/mL	25 µg/mL	–	6.25 µg/mL	10 to 20 mm	100 µg/mL	–	25 µg/mL	–	12.5 µg/mL	–
CCCCCCCCCCCCCOCCOCCOP(=O)([O-])OCC[N+](C)(C)C [Ex.]	100 µg/mL (≈ 220 µM)	3.12 µg/mL (≈ 6.88 µM)	–	12.5 µg/mL (≈ 27.6 µM)	25 µg/mL (≈ 55.1 µM)	12.5 µg/mL (≈ 27.6 µM)	12.5 µg/mL (≈ 27.6 µM)	–	25 µg/mL (≈ 55.1 µM)	–	6.25 µg/mL (≈ 13.8 µM)	–	25 µg/mL (≈ 55.1 µM)	–
CCCCCCCCCCCCCOCCOCCOP(=O)([O-])OCC[n+]1ccccc1 [Example 28, 3,6-Dioxanonadecyl 2-pyridinioethyl phosphate]	25 µg/mL	–	4 µg/mL	12.5 µg/mL	12.5 µg/mL	–	12.5 µg/mL	> 20 mm	25 µg/mL	–	6.25 µg/mL	–	25 µg/mL	6.25 µg/mL
CCCCCCCC/C=C\CCCCCCCCOCCOCCOP(=O)(O)OCCNC(C)(C)C [Example 8, 3,6-Dioxatetracos-15(Z)-enyl 2-tert-butylaminoethyl phosphate]	–	–	> 4 µg/mL	–	–	–	–	–	–	–	–	–	–	–
CCCCCCCCCCCCCOCCOCCOP(=O)([O-])OCC[N+](C)(C)C [Example 29, 3,6-Dioxanonadecyl 2-trimethylammonioethyl phosphate]	–	–	≤ 1 µg/mL	–	–	–	–	> 20 mm	–	–	–	–	–	–
CCCCCCCCCCOCCOCCOP(=O)(O)OCCN [Example 22, 3,6-Dioxahexadecyl 2-aminoethyl phosphate]	–	–	4 µg/mL	–	–	–	–	< 8 mm	–	–	–	–	–	–
CCCCCCCC/C=C\CCCCCCCCOCCOCCOP(=O)(O)OCCN [Example 5, 3,6-Dioxatetracos-15(Z)-enyl 2-aminoethyl phosphate]	–	–	4 µg/mL	–	–	–	–	8 to 10 mm	–	–	–	–	–	–
CCCCCCCCCCCCOCCOCCOP(=O)([O-])OCC[n+]1ccc2ccccc2c1 [Example 32, 3,6-Dioxaoctadecyl 2-isoquinolinioethyl phosphate]	–	–	4 µg/mL	–	–	–	–	> 20 mm	–	–	–	–	–	–
CCCCCCCCCCOCCOCCOP(=O)([O-])OCC[N+](C)(C)C [Example 21, 3,6-Dioxahexadecyl 2-trimethylammonioethyl phosphate]	–	–	2 µg/mL	–	–	–	–	10 to 20 mm	–	–	–	–	–	–
